In patent US20090130273A1, “FREEZE DRIED SUCRALOSE” (TATE & LYLE TECHNOLOGY LIMITED, priority 2007, published 2009):

Columns and labels:
[1] = Thermogravimetric analysis, stability at high temperature; assay type: physicochemical; conditions: mass as a function of time at 90° C. in nitrogen
Description: Thermogravimetric analysis was performed on commercial, seeded and unseeded samples made as described above in order to assess stability of the products at high temperature. The results are shown in FIGS. 4, 5 and 6, respectively. In each case, the mass of a sample was followed as a function of time at 90° C. in nitrogen, recorded as percent of original mass remaining. The vertical lines represent the point of the mass curve representing the halfway point of mass loss, and thus may be used as a measure of how rapidly decomposition set in. […] This further bears out the fact, noted above in view of the moisture absorption results, that these samples represent three different forms of sucralose.

[2] = Moisture absorption as a function of relative humidity; assay type: physicochemical; conditions: for moisture absorption behaviour compared with the other samples: RH ramp 0 to 80 % and back down to 20 %
Description: Sucralose beads prepared from seeded and unseeded aqueous sucralose solutions using the liquid nitrogen technique described above were evaluated to determine degree of moisture absorption as a function of relative humidity (% RH). A sample of commercial sucralose needles (“neat” sucralose) was also evaluated in parallel, and the results for these runs are shown in Table 1. Each column represents a ramping up of % RH from zero to 80, followed by ramping back down to 20.

Compound | onset of decomposition (halfway point of mass loss) ([1]; listed as seeded product) | Mass Increase (%) ([2]; 0 % RH, start of upward ramp) | Mass Increase (%) ([2]; 20 % RH, ramping back down) | Mass Increase (%) ([2]; 20 % RH, ramping up) | Mass Increase (%) ([2]; 30 % RH, ramping back down) | Mass Increase (%) ([2]; 30 % RH, ramping up) | Mass Increase (%) ([2]; 40 % RH, ramping back down) | Mass Increase (%) ([2]; 40 % RH, ramping up) | Mass Increase (%) ([2]; 50 % RH, ramping back down) | Mass Increase (%) ([2]; 50 % RH, ramping up) | Mass Increase (%) ([2]; 60 % RH, ramping back down) | Mass Increase (%) ([2]; 60 % RH, ramping up) | Mass Increase (%) ([2]; 70 % RH, ramping back down) | Mass Increase (%) ([2]; 70 % RH, ramping up) | Mass Increase (%) ([2]; 80 % RH, top of ramp) | moisture absorption behaviour compared with the other samples ([2]; listed as seeded product) | onset of decomposition (halfway point of mass loss) ([1]; listed as commercial sample) | Mass Increase (%) ([2]; 80 % RH, top of ramp, listed as neat (commercial) product) | onset of decomposition (halfway point of mass loss) ([1]; listed as unseeded product) | moisture absorption behaviour compared with the other samples ([2]; listed as unseeded product)
OCC1O[C@@H](O[C@]2(CCl)O[C@@H](CCl)C(O)C2O)C(O)C(O)[C@H]1Cl (stereo partly drawn) [Seeded, 4,1′,6′-trichloro-4,1′,6′-trideoxygalactosucrose] | took considerably longer | 0% | 0.02% | 0.01% | 0.02% | 0.02% | 0.02% | 0.02% | 0.03% | 0.02% | 0.03% | 0.03% | 0.04% | 0.03% | 0.04% | maximum value was less than half of that seen with the commercial product |  |  |  | 
OCC1O[C@@H](O[C@]2(CCl)O[C@@H](CCl)C(O)C2O)C(O)C(O)[C@H]1Cl (stereo partly drawn) [Neat, 4,1′,6′-trichloro-4,1′,6′-trideoxygalactosucrose, reference compound] |  | 0.00% | 0.00% | 0.00% | 0.00% | 0.00% | 0.00% | 0.00% | 0.00% | 0.00% | 0.00% | 0.00% | 0.00% | 0.00% | 0.10% |  | earliest to show significant decomposition | 0.1% |  | 
OCC1O[C@@H](O[C@]2(CCl)O[C@@H](CCl)C(O)C2O)C(O)C(O)[C@H]1Cl (stereo in doubt) [Not Seeded, 4,1′,6′-trichloro-4,1′,6′-trideoxygalactosucrose] |  | 0.00% | 0.60% | 1.09% | 0.81% | 2.21% | 1.15% | 3.41% | 2.01% | 4.91% | 2.91% | 6.21% | 4.11% | 6.71% | 7.11% |  |  |  | intermediate between the two | significantly higher moisture absorption
